# Test results published in PMC3479019, “Identification and functional analysis of gene cluster involvement in biosynthesis of the cyclic lipopeptide antibiotic pelgipeptin produced by Paenibacillus elgii” (BMC Microbiology, 2012).
# Assays:
# Test in all cases: amino acid adenylation, pyrophosphate release, inorganic pyrophosphatase / malachite green, […] nm
# Assay type in all cases: biochemical
# Conditions in all cases: 5 mM ATP, 10 mM MgCl2, 6 mM amino acid, 100 mM NaCl, 50 mM Tris-HCl pH 7.5, 25 °C
# PlpF A1 = molecular target: T1, PlpF A1 (Paenibacillus elgii, UniProt I1Z6A4)
# T1 construct: pET28a, E. coli BL21(DE3), Ni-purified, His-tag (N-terminal by primers, stop codon in reverse primer, inferred); borders by primers plpF-A1-F/R, N-term (AS)LSDSE, C-term TGLE (translated from primers)
# T1 sequence (I1Z6A4 entry or part of it): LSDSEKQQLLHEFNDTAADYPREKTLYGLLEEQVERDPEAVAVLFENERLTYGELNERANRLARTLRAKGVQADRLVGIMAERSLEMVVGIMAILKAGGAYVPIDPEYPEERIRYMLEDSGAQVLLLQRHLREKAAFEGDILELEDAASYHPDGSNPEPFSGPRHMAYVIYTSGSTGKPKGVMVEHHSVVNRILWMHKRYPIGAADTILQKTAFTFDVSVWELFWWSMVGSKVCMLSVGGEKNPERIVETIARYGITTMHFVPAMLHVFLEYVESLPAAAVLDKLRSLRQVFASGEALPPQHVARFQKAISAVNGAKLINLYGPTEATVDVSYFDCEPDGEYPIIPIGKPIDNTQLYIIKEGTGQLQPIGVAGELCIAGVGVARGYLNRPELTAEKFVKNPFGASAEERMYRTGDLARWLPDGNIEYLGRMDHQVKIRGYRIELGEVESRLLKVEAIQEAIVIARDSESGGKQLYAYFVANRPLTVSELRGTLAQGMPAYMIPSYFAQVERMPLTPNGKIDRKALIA
# PlpE A3 = molecular target: T2, PlpE A3 (Paenibacillus elgii, UniProt I1Z6A3)
# T2 construct: pET28a, E. coli BL21(DE3), Ni-purified, His-tag (C-terminal by primers, inferred); borders by primers plpE-A3-F/R, N-term MAAEQT, C-term ADYVA then KL-tag (translated from primers)
# T2 sequence (I1Z6A3 2324-2843): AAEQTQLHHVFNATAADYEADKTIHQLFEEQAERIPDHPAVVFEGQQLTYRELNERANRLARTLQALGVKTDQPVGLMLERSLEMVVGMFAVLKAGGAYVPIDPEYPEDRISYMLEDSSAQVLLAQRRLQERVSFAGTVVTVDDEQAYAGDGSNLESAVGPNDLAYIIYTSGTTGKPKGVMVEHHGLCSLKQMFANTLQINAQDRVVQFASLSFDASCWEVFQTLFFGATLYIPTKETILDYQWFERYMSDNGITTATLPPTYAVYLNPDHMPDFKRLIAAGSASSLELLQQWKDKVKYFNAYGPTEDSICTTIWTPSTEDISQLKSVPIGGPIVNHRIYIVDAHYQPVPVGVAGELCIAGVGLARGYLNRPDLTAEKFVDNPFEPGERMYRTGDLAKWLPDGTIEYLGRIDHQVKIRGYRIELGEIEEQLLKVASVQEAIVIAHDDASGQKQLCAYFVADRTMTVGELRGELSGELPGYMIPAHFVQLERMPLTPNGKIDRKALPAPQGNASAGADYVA
# PlpD A1 = molecular target: T3, PlpD A1 (Paenibacillus elgii, UniProt I1Z6A2)
# T3 construct: pET28a, E. coli BL21(DE3), Ni-purified, His-tag (C-terminal by primers, inferred); borders by primers plpD-A1-F/R, N-term MENILT, C-term GAEYE then LE-tag (translated from primers)
# T3 sequence (I1Z6A2 446-978): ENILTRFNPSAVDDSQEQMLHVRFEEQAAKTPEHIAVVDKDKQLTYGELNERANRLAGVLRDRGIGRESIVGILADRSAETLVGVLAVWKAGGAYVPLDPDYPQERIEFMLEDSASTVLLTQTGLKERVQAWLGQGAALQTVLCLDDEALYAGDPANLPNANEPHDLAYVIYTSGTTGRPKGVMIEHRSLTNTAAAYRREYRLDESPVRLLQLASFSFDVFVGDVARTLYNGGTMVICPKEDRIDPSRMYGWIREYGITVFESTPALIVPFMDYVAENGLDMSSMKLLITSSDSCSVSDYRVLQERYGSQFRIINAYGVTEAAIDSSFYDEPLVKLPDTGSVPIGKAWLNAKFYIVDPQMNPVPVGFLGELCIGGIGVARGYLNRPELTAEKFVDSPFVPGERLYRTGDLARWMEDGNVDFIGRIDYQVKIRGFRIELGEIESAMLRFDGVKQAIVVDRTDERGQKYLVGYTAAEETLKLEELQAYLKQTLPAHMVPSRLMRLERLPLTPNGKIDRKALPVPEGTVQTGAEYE
smiles,measurement,setting,value
N[C@@H](CO)C(=O)O [L-Ser],"amino acid adenylation, pyrophosphate release, inorganic pyrophosphatase / malac",PlpF A1,"clearly exhibited the highest activity for L-Dab, L-Phe, and L-Ser, respectively"
N[C@@H](Cc1ccccc1)C(=O)O [L-Phe],"amino acid adenylation, pyrophosphate release, inorganic pyrophosphatase / malac",PlpE A3,"clearly exhibited the highest activity for L-Dab, L-Phe, and L-Ser, respectively"
NCC[C@H](N)C(=O)O [L-Dab],"amino acid adenylation, pyrophosphate release, inorganic pyrophosphatase / malac",PlpD A1,"PlpD A1, PlpE A3, and Plp F A1 clearly exhibited the highest activity for L-Dab"
